Source: ChEMBL document CHEMBL1157773, “Cytotoxic polyphenols from the marine-derived fungus Penicillium expansum” (J Nat Prod, 2010)

Assays:
[1] = system: HL-60; assay: Cytotoxicity against human HL60 cells after 72 hrs by MTT assay; format: functional, cell-based
[2] = system: A549; assay: Cytotoxicity against human A549 cells after 72 hrs by SRB assay; format: functional, cell-based
[3] = Homo sapiens, HL-60, 72 h, read-out: IC50

Structure (SMILES) | IC50 [1, 3] | IC50 ([1]; hl-60) | IC50 [2]
COC(C)(CCCC(C)C)c1ccc(Cc2c(C)cc(Oc3cc(C)cc(O)c3)cc2O)cc1O (single isomer, unassigned) [EXPANSOL A] | 15.7 µM | – | –
C=C(C)CCC[C@](C)(O)c1ccc(C(=O)O)cc1O [11-DEHYDROSYDONIC ACID] | – | Not Active | Not Active
CC(=O)OC[C@@H](C)CCC[C@](C)(O)c1ccc(C(=O)O)cc1O [12-ACETOXYSYDONIC ACID] | – | Not Active | Not Active
Cc1cc(O)cc(Oc2cc(C)c(Cc3ccc([C@](C)(O)CCCC(C)C)c(O)c3)c(O)c2)c1 [EXPANSOL B] | 5.4 µM | – | –
